Among the data in US4898859A, “2-Oxa-isocephem compounds and compositions containing same” (Otsuka Pharmaceutical Co., Ltd., priority 1987, dated 1990) are MIC values, retold here.

Each structure is given as a SMILES string. Counter-ions that a name gives are not always drawn.

Format in all cases: cell-based
One assay relates to P. aeruginosa NCTC-10490. Description: antimicrobial activity in vitro, MIC by agar plate dilution method, P. aeruginosa NCTC-10490. The settings on record: Pseudomonas aeruginosa, NCTC10490, inoculum 1×10^6 cells/ml, read-out: minimal inhibitory concentration (MIC). On the procedure:
(§1) In order to investigate the in vitro activity of the under-mentioned compounds against various bacteria, the minimal inhibitory concentration (MIC) values were determined by the agar plate dilution method [see Chemotherapy, 22, 1126-1128 (1974)].
(§2) Each test inoculum was adjusted to 1×10^6 cells/ml (O.D., 600 mμ: 0.07-0.16).

The next assay deals with S. aureus FDA-209-p. In words: antimicrobial activity in vitro, MIC by agar plate dilution method, S. aureus FDA-209-p. The settings on record: Staphylococcus aureus, FDA209, inoculum 1×10^6 cells/ml, read-out: minimal inhibitory concentration (MIC). On the procedure: as §1, §2
The test system of another assay is E. coli No. 29. In words: antimicrobial activity in vitro, MIC by agar plate dilution method, E. coli No. 29. The settings on record: Escherichia coli, inoculum 1×10^6 cells/ml, read-out: minimal inhibitory concentration (MIC). The method, then:
as §1, §2

A further assay deals with M. morganii ATCC-25830. In words: antimicrobial activity in vitro, MIC by agar plate dilution method, M. morganii ATCC-25830. The settings on record: Morganella morganii, ATCC25830, inoculum 1×10^6 cells/ml, read-out: minimal inhibitory concentration (MIC). The method, then: as §1, §2
For another assay, the system named is S. marcescens IFO-12648. Description: antimicrobial activity in vitro, MIC by agar plate dilution method, S. marcescens IFO-12648. The settings on record: Serratia marcescens, IFO12648, inoculum 1×10^6 cells/ml, read-out: minimal inhibitory concentration (MIC). The method, then:
as §1, §2

The next assay relates to K. pneumoniae NCTC-9632. In words: antimicrobial activity in vitro, MIC by agar plate dilution method, K. pneumoniae NCTC-9632. The settings on record: Klebsiella pneumoniae, NCTC9632, inoculum 1×10^6 cells/ml, read-out: minimal inhibitory concentration (MIC). On the procedure: as §1, §2
A further assay deals with E. coli NIHJ. In words: antimicrobial activity in vitro, MIC by agar plate dilution method, E. coli NIHJ. The settings on record: Escherichia coli, inoculum 1×10^6 cells/ml, read-out: minimal inhibitory concentration (MIC). On the procedure:
as §1, §2

A further assay relates to P. mirabilis 1287. In words: antimicrobial activity in vitro, MIC by agar plate dilution method, P. mirabilis 1287. The settings on record: Proteus mirabilis, inoculum 1×10^6 cells/ml, read-out: minimal inhibitory concentration (MIC). On the procedure: as §1, §2

On to `CO/N=C(\C(=O)N[C@@H]1C(=O)N2C(C(=O)[O-])=C(CSc3cc[n+](CC(=O)N(C)C)cc3)OC[C@H]12)c1csc(N)n1` [No. 6, (6S,7S)-7-[2-(2-Aminothiazol-4-yl)-2-methoxyiminoacetamido]-3-[(1-N,N-dimethylcarbamoylmethyl-4-pyridinio)thiomethyl]-Δ^3 -O-2-isocephem-4-carboxylic acid sulfate (syn-isomer)], for which the MIC is 3.13 µg/mL in the assay on P. aeruginosa NCTC-10490; 0.2 µg/mL with S. aureus FDA-209-p; at most 0.025 µg/mL with E. coli No. 29; at most 0.025 µg/mL in the assay with M. morganii ATCC-25830; 0.2 µg/mL in the assay on S. marcescens IFO-12648; at most 0.025 µg/mL with K. pneumoniae NCTC-9632. Further, the MIC in the assay with E. coli NIHJ and in the assay on P. mirabilis 1287 was at most 0.025 µg/mL throughout.
